According to patent publication US7713994B2 (Wyeth LLC, priority 2005, dated 2010):

Tests used:
cyclin B/CDK1 enzyme = molecular target: T1, cyclin B/CDK1 enzyme (Homo sapiens, UniProt P06493); experiment: CDK1 ELISA kinase assay (phospho-Rb ser 795 detection); assay type: biochemical; conditions: In Vitro Enzyme Assays, read-out: CDK1 IC50
T1 construct: purchased New England BioLabs; host or cells: Sf9 insect cells, recombinant baculovirus
In short: (§1)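 Wells were coated overnight with GST-Rb C-terminal fragment, then blocked. Compound (10 ug/ml final) and cyclin/CDK enzyme from baculovirus-infected Sf9 cells with 200 μM ATP reacted 1 h at 30° C. Ser795 phosphorylation was detected by ELISA at 450 nm.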

LoVo = experiment: Cytotoxicity assay (SRB), LoVo; assay type: cell-based; conditions: Homo sapiens, LoVo, 72 h, LoVo cells, SRB, three days; read-out: In Vitro Cellular Activity IC50 LOVO
In short: (§2)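 Plate cells, let them attach overnight, add compound dilutions in RPMI 1640/5% FBS, and incubate 3 days (BT474 6 days). Then fix with TCA, stain with SRB, dissolve the dye in Tris and read at 540 nm.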

HCT-116 = experiment: Cytotoxicity assay (SRB), HCT-116; assay type: cell-based; conditions: Homo sapiens, HCT-116, 72 h, HCT116 cells, SRB, three days; read-out: In Vitro Cellular Activity IC50 HCT116
In short: as §2

cyclin E/CDK2 enzyme = molecular target: T2, cyclin E/CDK2 enzyme (Homo sapiens, UniProt P24941); experiment: CDK2 ELISA kinase assay (phospho-Rb ser 795 detection); assay type: biochemical; conditions: In Vitro Enzyme Assays, read-out: CDK2 IC50
T2 construct: made in house; host or cells: Sf9 insect cells, recombinant baculovirus
In short: as §1

MCF-7 = experiment: Cytotoxicity assay (SRB), MCF-7; assay type: cell-based; conditions: Homo sapiens, MCF7, 72 h, MCF-7 cells, SRB, three days; read-out: In Vitro Cellular Activity IC50 MCF-7
In short: as §2

cyclin D1/cdk 4 enzyme = molecular target: T3, cyclin D1/cdk 4 enzyme (Homo sapiens, UniProt P11802); experiment: CDK4 ELISA kinase assay (phospho-Rb ser 795 detection); assay type: biochemical; conditions: In Vitro Enzyme Assays, 200 μM ATP, read-out: CDK4 IC50
T3 construct: made in house; host or cells: Sf9 insect cells, recombinant baculovirus
In short: as §1

BT474 = experiment: Cytotoxicity assay (SRB), BT474; assay type: cell-based; conditions: Homo sapiens, BT-474, 144 h, BT474 cells, SRB, 6 days; read-out: In Vitro Cellular Activity IC50 BT474
In short: as §2

T1 sequence (P06493 whole entry): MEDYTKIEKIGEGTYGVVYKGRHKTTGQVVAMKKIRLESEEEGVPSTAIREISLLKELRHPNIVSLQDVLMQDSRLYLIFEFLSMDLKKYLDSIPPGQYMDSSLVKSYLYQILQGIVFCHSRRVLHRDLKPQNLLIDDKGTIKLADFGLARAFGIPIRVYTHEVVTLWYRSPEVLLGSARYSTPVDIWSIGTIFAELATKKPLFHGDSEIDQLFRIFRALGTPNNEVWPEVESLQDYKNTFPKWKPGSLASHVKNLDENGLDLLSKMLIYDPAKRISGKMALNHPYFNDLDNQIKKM
T1 sequence (P14635 whole entry partner): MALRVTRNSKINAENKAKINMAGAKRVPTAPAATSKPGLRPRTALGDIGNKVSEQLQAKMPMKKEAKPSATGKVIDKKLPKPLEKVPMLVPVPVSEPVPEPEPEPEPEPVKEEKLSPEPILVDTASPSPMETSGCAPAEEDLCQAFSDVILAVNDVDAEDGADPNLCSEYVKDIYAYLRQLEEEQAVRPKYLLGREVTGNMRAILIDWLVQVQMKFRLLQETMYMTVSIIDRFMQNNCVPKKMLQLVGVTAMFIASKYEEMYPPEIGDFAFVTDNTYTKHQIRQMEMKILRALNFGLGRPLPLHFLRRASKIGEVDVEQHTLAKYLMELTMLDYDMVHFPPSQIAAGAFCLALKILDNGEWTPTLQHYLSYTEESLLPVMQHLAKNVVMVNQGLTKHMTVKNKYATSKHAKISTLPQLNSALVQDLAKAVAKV
T3 sequence (P11802 whole entry, species assumed): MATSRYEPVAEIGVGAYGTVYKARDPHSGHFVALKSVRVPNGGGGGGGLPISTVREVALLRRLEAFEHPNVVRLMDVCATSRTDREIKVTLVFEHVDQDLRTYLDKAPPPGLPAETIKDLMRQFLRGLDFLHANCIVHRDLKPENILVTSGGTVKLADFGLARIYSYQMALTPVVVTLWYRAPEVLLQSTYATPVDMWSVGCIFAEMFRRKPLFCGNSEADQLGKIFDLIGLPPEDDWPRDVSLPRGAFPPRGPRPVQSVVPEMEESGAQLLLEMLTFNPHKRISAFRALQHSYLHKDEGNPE
T3 sequence (P24385 whole entry partner, species assumed): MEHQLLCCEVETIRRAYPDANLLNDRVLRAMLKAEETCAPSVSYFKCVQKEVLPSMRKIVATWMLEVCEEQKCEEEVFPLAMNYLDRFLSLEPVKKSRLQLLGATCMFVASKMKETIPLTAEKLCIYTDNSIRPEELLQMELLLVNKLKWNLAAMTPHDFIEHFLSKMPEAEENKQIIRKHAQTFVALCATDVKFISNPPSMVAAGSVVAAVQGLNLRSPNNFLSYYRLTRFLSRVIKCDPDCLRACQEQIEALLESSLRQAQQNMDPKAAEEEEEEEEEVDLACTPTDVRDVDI

Nc1ccc(CN/C=C2\C(=O)NC(=O)c3ccc(-c4ccc(F)cc4)cc32)cc1O [Example 134, (4Z)-4-{[(4-Amino-3-hydroxybenzyl)amino]methylene}-6-(4 fluorophenyl)isoquinoline-1,3(2H,4H)-dione]
IC50 (cyclin B/CDK1 enzyme): > 50 µM | IC50 (LoVo): 11 µM | IC50 (HCT-116): 13000 nM | IC50 (cyclin E/CDK2 enzyme): 13.2 µM | IC50 (MCF-7): 12 µM | melting point: 227 to 228 °C | IC50 (cyclin D1/cdk 4 enzyme): 40 nM | IC50 (BT474): 11 µM

COc1ccc(CN/C=C2\C(=O)NC(=O)c3ccc(-c4cn[nH]c4)cc32)cc1O [Example 136, (4Z)-4-{[(3-Hydroxy-4-methoxybenzyl)amino]methylene}-6-(1H-pyrazol-4-yl)isoquinoline-1,3(2H,4H)-dione]
IC50 (cyclin B/CDK1 enzyme): 4 µM | IC50 (LoVo): 36 µM | IC50 (HCT-116): 25000 nM | IC50 (cyclin E/CDK2 enzyme): 0.43 µM | IC50 (MCF-7): 48 µM | melting point: 252 to 253 °C | IC50 (cyclin D1/cdk 4 enzyme): 5 nM | IC50 (BT474): 16 µM

CC(C)Oc1ccc(CN/C=C2\C(=O)NC(=O)c3ccc(Br)cc32)cc1O [Example 137, (4Z)-6-Bromo-4-{[(3-hydroxy-4-isopropoxybenzyl)amino]methylene}isoquinoline-1,3(2H,4H)-dione]
IC50 (cyclin B/CDK1 enzyme): > 50 µM | IC50 (LoVo): 5.8 µM | IC50 (HCT-116): 4400 nM | IC50 (cyclin E/CDK2 enzyme): 33.9 µM | IC50 (MCF-7): 17 µM | melting point: 212 to 213 °C | IC50 (cyclin D1/cdk 4 enzyme): 690 nM | IC50 (BT474): 3.3 µM

CC1CCCN1Cc1ccc(N/C=C2\C(=O)NC(=O)c3ccc(I)cc32)cc1 (stereo not drawn) [Example 138, (4Z)-6-Iodo-4-[({4-[(2-methylpyrrolidin-1-yl)methyl]phenyl}amino)methylene]isoquinoline-1,3(2H,4H)-dione]
IC50 (cyclin B/CDK1 enzyme): > 50 µM | IC50 (LoVo): 4.9 µM | IC50 (HCT-116): 3700 nM | IC50 (cyclin E/CDK2 enzyme): > 50 µM | IC50 (MCF-7): 1.2 µM | melting point: 157 to 158 °C | IC50 (cyclin D1/cdk 4 enzyme): 140 nM | IC50 (BT474): 0.41 µM

CC(=O)Nc1ccc(CN/C=C2\C(=O)NC(=O)c3ccc(Br)cc32)cc1OC(C)=O [Example 141, 2-(Acetylamino)-5-({[(Z)-(6-bromo-1,3-dioxo-2,3-dihydroisoquinolin-4(1H)-′ylidene)methyl]amino}methyl)phenyl acetate]
IC50 (cyclin B/CDK1 enzyme): > 50 µM | IC50 (LoVo): 1.3 µM | IC50 (HCT-116): 840 nM | IC50 (cyclin E/CDK2 enzyme): > 50 µM | IC50 (MCF-7): 16 µM | melting point: 264 to 265 °C | IC50 (cyclin D1/cdk 4 enzyme): 190 nM | IC50 (BT474): 0.56 µM

Cl.O=C1NC(=O)c2ccc(Br)cc2C1=NNc1ccc(CN2CCCCC2)cc1 [Example 144, 6-Bromo-4-[(4-piperidin-1-ylmethyl-phenyl)-hydrazono]-4H-isoquinoline-1,3-dione Hydrochloride]
IC50 (cyclin B/CDK1 enzyme): > 50 µM | IC50 (LoVo): 3.2 µM | IC50 (HCT-116): 1500 nM | IC50 (cyclin E/CDK2 enzyme): > 50 µM | IC50 (MCF-7): 3.2 µM | melting point: 298 to 299 °C (dec.) | IC50 (cyclin D1/cdk 4 enzyme): 1900 nM | IC50 (BT474): 3.2 µM

CC(=O)Nc1ccc(CN/C=C2\C(=O)NC(=O)c3ccc(I)cc32)cc1OC(C)=O [Example 146, 2-(Acetylamino)-5-({[(Z)-(6-iodo-1,3-dioxo-2,3-dihydroisoquinolin-4(1H)-′ylidene)methyl]amino}methyl)phenyl acetate]
IC50 (cyclin B/CDK1 enzyme): > 50 µM | IC50 (LoVo): 0.86 µM | IC50 (HCT-116): 660 nM | IC50 (cyclin E/CDK2 enzyme): 8.6 µM | IC50 (MCF-7): 2.7 µM | melting point: 264 to 265 °C | IC50 (cyclin D1/cdk 4 enzyme): 100 nM | IC50 (BT474): 0.49 µM

O=C1NC(=O)c2ccc(-c3ccsc3)cc2C1=NNc1ccc(CN2CCCCC2)cc1 [Example 152, 4-[(4-Piperidin-1-ylmethyl-phenyl)-hydrazono]-6-thiophen-3-yl-4H-isoquinoline-1,3-dione]
IC50 (cyclin B/CDK1 enzyme): 36.3 µM | IC50 (LoVo): 6.6 µM | IC50 (HCT-116): 2800 nM | IC50 (cyclin E/CDK2 enzyme): > 50 µM | IC50 (MCF-7): 6.2 µM | melting point: 164 to 168 °C (dec.) | IC50 (cyclin D1/cdk 4 enzyme): 60 nM | IC50 (BT474): 3.4 µM

O=C1NC(=O)c2ccc(-c3ccoc3)cc2C1=NNc1ccc(CN2CCCCC2)cc1 [Example 156, 6-Furan-3-yl-4-[(4-piperidin-1-ylmethyl-phenyl)-hydrazono]-4H-isoquinoline-1,3-dione]
IC50 (cyclin B/CDK1 enzyme): > 50 µM | IC50 (LoVo): 6.4 µM | IC50 (HCT-116): 2500 nM | IC50 (cyclin E/CDK2 enzyme): > 50 µM | IC50 (MCF-7): 1.5 µM | melting point: 223 to 225 °C (dec.) | IC50 (cyclin D1/cdk 4 enzyme): 40 nM | IC50 (BT474): 2.6 µM
